Assay results taken from US5449676A, “Pyridazines” (priority 1991, dated 1995).
Like-named read-outs stand apart in the source and are kept apart here.

Legend:
tracheal rings = experiment: bronchospasmolytic effect on the chain of tracheal rings from guinea pigs in vitro; format: cell-based; conditions: for -lg[EC50 ] / EC50: negative logarithm of EC50 mol/l, 50% of maximum achievable relaxation; for [EC50 ] theophylline/[EC50 ] substance: ratio of EC50 values, theophylline vs substance; for EC50: Cavia porcellus, read-out: -lg[EC50 ] (converted)
Experimental: The bronchospasmolytic effect of the compounds on the chain of tracheal rings from guinea pigs was tested in vitro as follows:
Thus, a complete dose-effect plot for the test substance is obtained over a period of 20 to 30 minutes. The particular relaxation is expressed as a percentage fraction of the maximum relaxation achievable by administration of (-)isoprenaline (10^-6 mol/l).

[1] = system: acetylcholine-induced bronchospasm; experiment: protective effect against acetylcholine-induced bronchospasm in conscious guinea pigs; format: in vivo; conditions: oral, 30 minutes after administration, percentage of protected animals; for responders at 10 µmol/kg: 10 μmol/kg
Experimental: In addition, the bronchospasmolytic effect was tested on the "protective effect against acetylcholine-induced bronchospasm in conscious guinea pigs" model:
Guinea pigs (250-350 g) are exposed in a closed Plexiglass cylinder (volume […] ) to an acetylcholine mist (0.06% in 0.9% sodium chloride solution; Heyer Use 77 ultrasonic atomizer) before administration of the substance and twice at an interval of 20 minutes after administration of the substance. The time from the start of atomization to the onset of marked breathing difficulties (in some cases hypoxic convulsion in the lateral position) is measured and called the latency time. An increase in the latency time after administration of the substance to at least three times the average latency time before administration of the substance is regarded as a protective effect, and the number of protected animals in the group is determined. […]
[…] After 30 minutes, the animals are again exposed to the acetylcholine mist and the latency times are measured. An increase in the latency time to at least three times the length is regarded as a protective effect.

[2] = system: histamine-induced bronchospasm; experiment: histamine-induced bronchospasm in anesthetized guinea pigs; format: in vivo; conditions: for inhibition in vivo at 20 µmol/kg / inhibition in vivo at 60 µmol/kg / inhibition in vivo at 100 µmol/kg / inhibition in vivo at 5 µmol/kg / inhibition in vivo at 10 µmol/kg: Cavia porcellus; for inhibition in vivo at 5 µmol/kg: 5 μmol/kg; for inhibition in vivo at 10 µmol/kg: 10 μmol/kg
Experimental: One histamine spasm before administration of the substance was compared with several histamine spasms after administration of the substance. The test substances were administered intravenously (i.v.) and/or intrajejunally (i.j.).

PDE III = target: T1, PDE III (Homo sapiens, UniProt Q14432); experiment: inhibition of PDE III isolated from human platelets; format: biochemical; conditions: negative logarithm of IC50, cAMP 0.5 μmol/l; for IC50: read-out: PDE III hum. platelets -lg[IC50 ] (converted)
T1 construct: PDE III isolated from human platelets; from tissue; host or cells: human platelets
T1 sequence (Q14432 whole entry): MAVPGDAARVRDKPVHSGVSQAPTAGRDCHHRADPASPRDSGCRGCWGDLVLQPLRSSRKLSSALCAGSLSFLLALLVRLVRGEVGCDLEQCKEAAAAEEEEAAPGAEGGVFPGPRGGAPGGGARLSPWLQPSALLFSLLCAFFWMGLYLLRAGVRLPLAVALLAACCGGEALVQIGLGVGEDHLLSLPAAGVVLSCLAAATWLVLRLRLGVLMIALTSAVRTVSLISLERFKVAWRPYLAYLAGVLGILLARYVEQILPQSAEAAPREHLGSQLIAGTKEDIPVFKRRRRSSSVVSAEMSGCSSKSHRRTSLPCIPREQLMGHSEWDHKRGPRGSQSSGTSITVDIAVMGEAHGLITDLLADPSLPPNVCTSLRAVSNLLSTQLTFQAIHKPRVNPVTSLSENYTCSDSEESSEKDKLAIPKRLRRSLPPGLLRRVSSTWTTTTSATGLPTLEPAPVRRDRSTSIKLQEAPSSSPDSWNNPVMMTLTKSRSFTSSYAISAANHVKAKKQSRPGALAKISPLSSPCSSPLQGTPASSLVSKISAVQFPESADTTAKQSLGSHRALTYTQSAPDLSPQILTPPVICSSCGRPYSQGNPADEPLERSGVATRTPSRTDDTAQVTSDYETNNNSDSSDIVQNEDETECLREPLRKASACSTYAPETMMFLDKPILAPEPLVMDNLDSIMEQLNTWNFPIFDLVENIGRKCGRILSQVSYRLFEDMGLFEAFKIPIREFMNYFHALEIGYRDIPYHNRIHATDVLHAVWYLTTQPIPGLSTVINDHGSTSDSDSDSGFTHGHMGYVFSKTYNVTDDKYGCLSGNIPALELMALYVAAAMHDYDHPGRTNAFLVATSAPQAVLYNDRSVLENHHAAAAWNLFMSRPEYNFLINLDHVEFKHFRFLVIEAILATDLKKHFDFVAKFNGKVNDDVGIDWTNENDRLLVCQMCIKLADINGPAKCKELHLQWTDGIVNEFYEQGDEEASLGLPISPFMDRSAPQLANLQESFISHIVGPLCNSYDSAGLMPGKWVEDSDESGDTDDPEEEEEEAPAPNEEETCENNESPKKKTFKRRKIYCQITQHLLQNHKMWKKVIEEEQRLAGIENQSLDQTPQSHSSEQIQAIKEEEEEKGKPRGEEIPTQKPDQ
Text: (§1) The specific inhibition of phosphodiesterase IV (PDE IV=high-affinity cAMP-PDE which cannot be inhibited by cGMP, rolipram-sensitive) is regarded as particularly indicative of an expected bronchospasmolytic and/or antiinflammatory effect. The specificity of the inhibition is moreover described by the ratio [IC50 ]PDE-III /[IC50 ]PDE-IV (PDE III=high-affinity cAMP-PDE which can be inhibited by cGMP) [H. Hidaka et al., Adv. Cycl. Nucl. Res. 13, 145 (1984); TiPS 5, 237 (1984); R. Weishaar et al., J. Med. Chem. 28, (1985); S. A. Harrison et al., Molec. Pharmac. 29, 506 (1986); J. Klein-Tebbe et al., Allergologie 12, 12 (1989); C. Schudt et al., Allergologie 12, 12, (1989); C. Schudt et al., Agents and Action 1991 in press; C. D. Nicholson et al., TiPS 12, (1), 19 (1991)].
(§2) For this reason, the PDE inhibition by the compounds according to the invention was determined on a PDE III isolated from human platelets and on PDE IV isolated from human polymorphonuclear neutrophilic cells (PMNs) and from the dog trachea. Phosphodiesterases III and IV are isolated by chromatography as described by Polson et al., Biochem. Pharmacol. 31, 3403-3406 (1982).
(§3) The substances are dissolved and diluted further in DMSO. 2.1 μl samples from a series of solutions diluted up to 100 fold are mixed with 212 μl of reaction mixture. The reaction mixture contains Hepes (100 mmol/l), DTE (5 mmol/l), MgCl2 (5 mmol/l), CaCl2 (10 μmol/l), BSA fraction V 0.5 mg, ml, cAMP 0.5 μmol/l, 2,8-^3 H-cAMP 250,000 cpm/ml (0.3 μCi/ml, S.A. […]), SV (snake venom) 25 μg/212 μl of test mixture.

PDE IV [3] = experiment: inhibition of PDE IV isolated from dog trachea; format: biochemical; conditions: for PDE IV dog trachea -lg[IC50 ]: negative logarithm of IC50, cAMP 0.5 μmol/l; for [IC50 ] PDE III/[IC50 ] PDE IV dog tr.: selectivity ratio, PDE III hum. platelets vs PDE IV dog trachea
Text: as §1, §2, §3

PDE IV [4] = experiment: inhibition of PDE IV isolated from human polymorphonuclear neutrophilic cells (PMNs); format: biochemical; conditions: for PDE IV hum. PMNs -lg[IC50 ]: negative logarithm of IC50, cAMP 0.5 μmol/l; for [IC50 ] PDE III/[IC50 ] PDE IV PMNs: selectivity ratio, PDE III hum. platelets vs PDE IV hum. PMNs
Text: as §1, §2, §3

[5] = Cavia porcellus, 0.5 h, 100 μmol/kg
[6] = 1 h, read-out: % inhibition (0-1 h) of the histamine-induced decrease in Vmax
[7] = 1 h, read-out: % inhibition after 1 h of the histamine-induced decrease in Vmax
[8] = iv, 1 h, read-out: % inhibition (0-1 h) of the histamine-induced decrease in Vmax
[9] = iv, 1 h, read-out: % inhibition after 1 h of the histamine-induced decrease in Vmax
[10] = iv, after 1 h, read-out: % inhibition after 1 h of the histamine-induced decrease in Vmax
[11] = iv, average 0-1 h after administration, read-out: % inhibition (0-1 h) of the histamine-induced decrease in Vmax
[12] = iv, 20 μmol/kg, after 1 h, read-out: % inhibition after 1 h of the histamine-induced decrease in Vmax
[13] = iv, 20 μmol/kg, average 0-1 h after administration, read-out: % inhibition (0-1 h) of the histamine-induced decrease in Vmax

Row | Molecule | [EC50 ] theophylline/[EC50 ] substance (tracheal rings) | responders at 100 µmol/kg [1, 5] [%] | IC50 (PDE III) [µM] | PDE IV hum. PMNs -lg[IC50 ] (PDE IV [4]) | [IC50 ] PDE III/[IC50 ] PDE IV PMNs (PDE IV [4]) | EC50 (tracheal rings) [µM] | other results
1 | 3-amino-6-(4-difluoromethoxy-3-ethoxyphenyl)pyridazine 2-oxide [Serial No. 19] | 14.5 | – | – | – | – | – | -lg[EC50 ] (tracheal rings): 5.03; % protective effect ([1]; 100 μmol/kg): 35%
2 | 3-amino-6-(4-difluoromethoxy-3-methoxyphenyl)pyridazine 2-oxide [Serial No. 20] | 33.2 | – | – | – | – | – | -lg[EC50 ] (tracheal rings): 5.39; % protective effect ([1]; 100 μmol/kg): 50%
3 | 3-amino-6-(4-difluoromethoxy-3-methoxyphenyl)pyridazine [Serial No. 11] | 20.4 | – | – | – | – | – | -lg[EC50 ] (tracheal rings): 5.18; % protective effect ([1]; 30 μmol/kg): 35%; % protective effect ([1]; 100 μmol/kg, listed as 4): 35%; % protective effect ([1]; 100 μmol/kg, listed as 6): 85%; % inhibition after 1 h of the histamine-induced decrease in Vmax ([2]; i.v., 20 μmol/kg, after 1 h): is; % inhibition (0-1 h) of the histamine-induced decrease in Vmax ([2]; i.v., 20 μmol/kg, average 0-1 h after administration): 22%
4 | COc1ccc(-c2ccc(N)nn2)cc1OC(C)C [Serial No. 3, 3-amino-6-[4-methoxy-3-(1-methylethoxy)phenyl]pyridazine] | – | – | – | – | – | – | PDE III hum. platelets -lg[IC50 ] (PDE III): 3.66; PDE IV dog trachea -lg[IC50 ] (PDE IV [3]): 5.30; [IC50 ] PDE III/[IC50 ] PDE IV dog tr. (PDE IV [3]): 43.7
5 | COc1cc(-c2ccc(N)nn2)ccc1OC(C)C [Serial No. 5, 3-amino-6-[3-methoxy-4-(1-methylethoxy)phenyl]pyridazine] | – | 45 | – | – | – | – | –
6 | COc1ccc(-c2ccc(N)nn2)cc1OC1CCCCC1 [Serial No. 7, 3-amino-6-(3-cyclohexyloxy-4-methoxyphenyl)pyridazine] | – | – | 60.3 | – | – | – | PDE IV dog trachea -lg[IC50 ] (PDE IV [3]): 5.17; [IC50 ] PDE III/[IC50 ] PDE IV dog tr. (PDE IV [3]): 8.9
7 | Cn1c(=O)c2[nH]cnc2n(C)c1=O [Theophylline, reference compound] | – | 20 | – | 3.77 | – | – | responders at 200 µmol/kg ([1]; Cavia porcellus, 0.5 h, 200 μmol/kg): 40%; responders at 400 µmol/kg ([1]; Cavia porcellus, 0.5 h, 400 μmol/kg): 70%; inhibition in vivo at 20 µmol/kg [2, 6]: 11%; inhibition in vivo at 60 µmol/kg [2, 6]: 37%; inhibition in vivo at 100 µmol/kg [2, 6]: 45%; inhibition in vivo at 20 µmol/kg [2, 7]: 8%; inhibition in vivo at 60 µmol/kg [2, 7]: 42%; inhibition in vivo at 100 µmol/kg [2, 7]: 44%; inhibition in vivo at 20 µmol/kg [2, 8]: 13%; inhibition in vivo at 60 µmol/kg [2, 8]: 25%; inhibition in vivo at 100 µmol/kg [2, 8]: 34%; inhibition in vivo at 20 µmol/kg [2, 9]: 5%; inhibition in vivo at 60 µmol/kg [2, 9]: 12%; inhibition in vivo at 100 µmol/kg [2, 9]: 22%
8 | Nc1ccc(-c2ccc(OC(F)F)c(OC3CCCC3)c2)nn1 [compound 14] | 20.4 | – | 53.7 | 7.15 | 1466 | 6.61 | –
9 | CC(C)Oc1cc(-c2ccc(N)nn2)ccc1OC(F)F [compound 15] | – | – | 107 | 6.78 | 794 | – | –
10 | Nc1ccc(-c2ccc(OC(F)F)c(OCC(F)(F)F)c2)nn1 [compound 16] | – | – | 331 | 6.88 | 2515 | – | –
11 | CC(C)COc1cc(-c2ccc(N)nn2)ccc1OC(F)F [compound 17] | – | – | 151 | 6,96 | 1466 | – | –
12 | Nc1ccc(-c2ccc(OC(F)F)c(OCC3CC3)c2)nn1 [compound 18] | – | 75 | 145 | 7.47 | 4265 | – | responders at 10 µmol/kg ([1]; Cavia porcellus, 0.5 h): 75%; inhibition in vivo at 5 µmol/kg [2, 10]: 49%; inhibition in vivo at 5 µmol/kg [2, 11]: 40%; inhibition in vivo at 10 µmol/kg [2, 10]: 38%; inhibition in vivo at 10 µmol/kg [2, 11]: 33%; inhibition in vivo at 20 µmol/kg [2, 12]: 35%; inhibition in vivo at 20 µmol/kg [2, 13]: 31%; inhibition in vivo at 10 µmol/kg ([2]; i.j. admin., after 1 h, read-out: % inhibition after 1 h of the histamine-induced decrease in Vmax): 43%; inhibition in vivo at 10 µmol/kg ([2]; i.j. admin., average 0-1 h after administration, read-out: % inhibition (0-1 h) of the histamine-induced decrease in Vmax): 32%
13 | CCOc1ccc(-c2ccc(N)[n+]([O-])n2)cc1OC(F)F [compound 21] | 240 | – | 44.7 | 5.19 | 6.9 | 0.562 | –
14 | CC(C)Oc1cc(-c2ccc(N)[n+]([O-])n2)ccc1OC(F)F [compound 22] | 44.7 | 60 | 12 | 6.26 | 21.9 | 3.02 | –
15 | CC(C)COc1cc(-c2ccc(N)[n+]([O-])n2)ccc1OC(F)F [compound 23] | 44.7 | – | 126 | 7.03 | 1350 | 3.02 | –
16 | Nc1ccc(-c2ccc(OC(F)F)c(OC3CCCC3)c2)n[n+]1[O-] [compound 24] | 65.5 | 60 | 47.9 | 7.24 | 832 | 2.04 | –
17 | Nc1ccc(-c2ccc(OC(F)F)c(OCC(F)(F)F)c2)n[n+]1[O-] [compound 25] | 380 | 70 | 70.8 | 6.42 | 186 | 0.355 | responders at 10 µmol/kg ([1]; Cavia porcellus, 0.5 h): 45%; inhibition in vivo at 20 µmol/kg [2, 12]: 33%; inhibition in vivo at 20 µmol/kg [2, 13]: 34%
18 | Nc1ccc(-c2ccc(OC(F)F)c(OCC3CC3)c2)n[n+]1[O-] [compound 26] | 135 | – | 18.2 | 7.48 | 550 | 1 | responders at 10 µmol/kg ([1]; Cavia porcellus, 0.5 h): 70%; inhibition in vivo at 20 µmol/kg [2, 12]: 12%; inhibition in vivo at 20 µmol/kg [2, 13]: 15%
